From patent US20250346601A1, “HETEROCYCLIC COMPOUNDS FOR THE PREVENTION AND THERAPY OF CIRCADIAN RHYTHM DISORDERS” (UNIVERZITA PALACKEHO V OLOMOUCI, priority 2022, published 2025)

What was measured:
[1] = system: NIH3T3 line transfected with the Per2-Luc reporter; assay: Period of the circadian rhythm in NIH3T3 fibroblasts with Per2-Luc reporter (luminescence, cosinor analysis); type: cell-based, mouse; conditions: for Period length ± standard error of the mean (expressed relative to the control) at the indicated concentration: NIH3T3, DMSO control = 1.00
Method: NIH3T3 mouse embryonic fibroblasts were grown in standard DMEM with 10% fetal bovine serum. NIH3T3 cells were transfected with 1 μg of Per2-Luc reporter using GeneJuice and selected under hygromycin. The cell line was clonally expanded and a single monoclonal cell line was used for further experiments. Cells were cultured in a 96-well plate in growth medium to 90+% confluence. Test compound or vehicle (DMSO) was applied to recording medium with 100 U/ml penicillin, 100 μg/ml streptomycin, 1x GlutaMAX, 10% fetal calf serum and 0.1 mM Luciferin-EF (Promega Madison, WI, USA). Luminescence was recorded every hour for the next 144 hours. Circadian rhythm analysis was performed using cosinor analysis. Period length was expressed relative to the period of cells affected only by DMSO vehicle (their period length is therefore 1.00).

[2] = system: U2OS line transduced with the Bmal 1-Luc reporter; assay: Period of the circadian rhythm in U2OS cells with Bmal1-Luc reporter (luminescence, cosinor analysis); type: cell-based, Human; conditions: for Period length ± standard error of the mean (expressed relative to control) at the indicated concentration: U2OS, DMSO control = 1.00
Method: Human osteosarcoma U2OS cells were grown in standard DMEM medium with 10% fetal bovine serum. U2OS cells were transduced with lentiviral particles containing a Bmall-Luc fusion reporter and selected under Blasticidin. The cell line was clonally expanded and a single monoclonal cell line was used for further experiments. Cells were cultured in a 384-well plate in growth medium to 90+% confluence. Test compound or vehicle (DMSO) was applied to recording medium with 100 U/ml penicillin, 100 ug/ml streptomycin, 1x GlutaMAX, 10% fetal bovine serum, and 0.1 mM Luciferin-EF. Luminescence was recorded every hour for the next 144 hours. Circadian rhythm analysis was performed using cosinor analysis.
The length of the period was expressed relative to the period of cells affected only by DMSO vehicle (their period is therefore 1.00). […] The overall effect on circadian oscillations unequivocally proves that the compounds of formula I can be also used to temporally modulate the concentration and activity of not only BMAL1, but also other components of the oscillator including the critical components PER2, CRY and CLOCK in time, as these are an essential part of the mechanism generating the rhythmic expression of the luminescent reporter used. The concentration and level of other proteins, whose rhythmic expression is controlled by an oscillator in the brain and peripheral tissues (so-called clock-controlled genes), are also necessarily affected. The influence of the compounds of formula I on the activity of oscillator components and subordinate genes also means influencing the physiological processes of the cell controlled by these genes and proteins. N^6-furfuryladenine was used as a reference compound. […] The ability to shift the phase of the circadian cycle can be seen in FIG. 2.

CC(C)(C)OCCn1cnc2c(NCc3ccco3)ncnc21 [9-[2-(tert-butoxy)ethyl]-N-(furan-2-ylmethyl)-9H-purin-6-amine, reference compound]
Period length ± standard error of the mean (expressed relative to the control) at the indicated concentration ([1]; 50 μM): 50 μM: 0.9 ± 0.06
Period length ± standard error of the mean (expressed relative to control) at the indicated concentration ([2]; 50 μM): 50 μM: 1 ± 0.01

CNc1nc(NCc2ccco2)c2ncn(C3CCCCO3)c2n1 (stereo not shown) [Compound 33]
Period length ± standard error of the mean (expressed relative to the control) at the indicated concentration ([1]; 50 μM): 50 μM: 1.18 ± 0.02
Period length ± standard error of the mean (expressed relative to control) at the indicated concentration ([2]; 5 μM): 5 μM: 1.04 ± 0

c1coc(CNc2nc(N3CCOCC3)nc3c2ncn3C2CCCC2)c1 [Compound 20]
Period length ± standard error of the mean (expressed relative to the control) at the indicated concentration ([1]; 0.83 μM): 1.04 ± 0.01
Period length ± standard error of the mean (expressed relative to the control) at the indicated concentration ([1]; 50 μM): 1.55 ± 0.03
Period length ± standard error of the mean (expressed relative to control) at the indicated concentration ([2]; 1 μM): 1.09 ± 0.01
Period length ± standard error of the mean (expressed relative to control) at the indicated concentration ([2]; 4 μM): 1.67 ± 0.33

CN(C)CCNc1nc(NCc2ccco2)c2ncn(C3CCCC3)c2n1 [Compound 17]
Period length ± standard error of the mean (expressed relative to the control) at the indicated concentration ([1]; 10 μM): 1.71 ± 0.04
Period length ± standard error of the mean (expressed relative to the control) at the indicated concentration ([1]; 50 μM): 2.17 ± 0.1
Period length ± standard error of the mean (expressed relative to control) at the indicated concentration ([2]; 10 μM): 10 μM: 1.48 ± 0.28

CN(C)CCNc1nc(NCc2ccco2)c2ncn(C3CCCCO3)c2n1 (stereo not shown) [Compound 44]
Period length ± standard error of the mean (expressed relative to the control) at the indicated concentration ([1]; 50 μM): 50 μM: 1.72 ± 0.04
Period length ± standard error of the mean (expressed relative to control) at the indicated concentration ([2]; 1 μM): 1.05 ± 0.01
Period length ± standard error of the mean (expressed relative to control) at the indicated concentration ([2]; 5 μM): 1.28 ± 0.02

CNc1nc(NCc2ccc(C)o2)c2ncn(C3CCCCO3)c2n1 (stereo not shown) [Compound 50]
Period length ± standard error of the mean (expressed relative to the control) at the indicated concentration ([1]; 50 μM): 50 μM: 1.6 ± 0.02
Period length ± standard error of the mean (expressed relative to control) at the indicated concentration ([2]; 10 μM): 1.11 ± 0.01
Period length ± standard error of the mean (expressed relative to control) at the indicated concentration ([2]; 20 μM): 1.14 ± 0.02

Clc1nc(NCc2ccco2)c2ncn(C3CCCC3)c2n1 [Compound 6]
Period length ± standard error of the mean (expressed relative to the control) at the indicated concentration ([1]; 10 μM): 10 μM: 1.27 ± 0.01
Period length ± standard error of the mean (expressed relative to control) at the indicated concentration ([2]; 5 μM): 5 μM: 1.23 ± 0.03

CN(CCN)c1nc(NCc2ccco2)c2ncn(C3CCCC3)c2n1 [Compound 16]
Period length ± standard error of the mean (expressed relative to the control) at the indicated concentration ([1]; 0.83 μM): 1.05 ± 0.01
Period length ± standard error of the mean (expressed relative to the control) at the indicated concentration ([1]; 10 μM): 2.02 ± 0.06
Period length ± standard error of the mean (expressed relative to control) at the indicated concentration ([2]; 10 μM): 1.26 ± 0.07
Period length ± standard error of the mean (expressed relative to control) at the indicated concentration ([2]; 20 μM): 1.95 ± 0.14

CN(C)c1nc(NCc2ccco2)c2ncn(C3CCCCO3)c2n1 (stereo not shown) [Compound 34]
Period length ± standard error of the mean (expressed relative to the control) at the indicated concentration ([1]; 50 μM): 50 μM: 2.3 ± 0.03
Period length ± standard error of the mean (expressed relative to control) at the indicated concentration ([2]; 10 μM): 1.12 ± 0.01
Period length ± standard error of the mean (expressed relative to control) at the indicated concentration ([2]; 20 μM): 1.25 ± 0.03
Period length ± standard error of the mean (expressed relative to control) at the indicated concentration ([2]; 50 μM): 50 μM: 1.73 ± 0.6

CC(C)OCCn1cnc2c(NCc3ccco3)ncnc21 [N-(furan-2-ylmethyl)-9-(2-isopropoxyethyl)-9H-purin-6-amine, reference compound]
Period length ± standard error of the mean (expressed relative to the control) at the indicated concentration ([1]; 50 μM): 50 μM: 0.95 ± 0.02
Period length ± standard error of the mean (expressed relative to control) at the indicated concentration ([2]; 50 μM): 50 μM: 1.01 ± 0.01

CNc1nc(NCc2ccco2)c2ncn(C3CCCCCO3)c2n1 (stereo not shown) [Compound 60]
Period length ± standard error of the mean (expressed relative to the control) at the indicated concentration ([1]; 50 μM): 50 μM: 1.42 ± 0.04
Period length ± standard error of the mean (expressed relative to control) at the indicated concentration ([2]; 5 μM): 1.04 ± 0
Period length ± standard error of the mean (expressed relative to control) at the indicated concentration ([2]; 20 μM): 1.15 ± 0.01

c1coc(CNc2ncnc3nc[nH]c23)c1 [N^6-furfuryladenine, reference compound]
Period length ± standard error of the mean (expressed relative to the control) at the indicated concentration ([1]; 50 μM): 50 μM: 1.06 ± 0.02
Effect on the period of the circadian rhythm (in words) ([1]; NIH3T3 Per2-Luc): much smaller effect
Period length ± standard error of the mean (expressed relative to control) at the indicated concentration ([2]; 20 μM): 20 μM: 1.02 ± 0.01
Effect on the period of the circadian rhythm (in words) ([2]; U2OS Bmal1-Luc): minimal effect

COCCCn1cnc2c(NCc3ccco3)ncnc21 [N-(furan-2-ylmethyl)-9-(3-methoxypropyl)-9H-purin-6-amine, reference compound]
Period length ± standard error of the mean (expressed relative to the control) at the indicated concentration ([1]; 50 μM): 50 μM: 0.93 ± 0
Period length ± standard error of the mean (expressed relative to control) at the indicated concentration ([2]; 50 μM): 50 μM: 0.99 ± 0.01

COCCCCn1cnc2c(NCc3ccco3)ncnc21 [N-(furan-2-ylmethyl)-9-(4-methoxybutyl)-9H-purin-6-amine, reference compound]
Period length ± standard error of the mean (expressed relative to the control) at the indicated concentration ([1]; 50 μM): 50 μM: 0.97 ± 0.03
Period length ± standard error of the mean (expressed relative to control) at the indicated concentration ([2]; 50 μM): 50 μM: 1 ± 0.01

CCCNc1nc(NCc2ccco2)c2ncn(C3CCCCO3)c2n1 (stereo not shown) [Compound 35]
Period length ± standard error of the mean (expressed relative to the control) at the indicated concentration ([1]; 50 μM): 50 μM: 1.38 ± 0.09
Period length ± standard error of the mean (expressed relative to control) at the indicated concentration ([2]; 10 μM): 10 μM: 1.05 ± 0.01

COCCCNc1nc(NCc2ccco2)c2ncn(C3CCCCO3)c2n1 (stereo not shown) [Compound 46]
Period length ± standard error of the mean (expressed relative to the control) at the indicated concentration ([1]; 50 μM): 50 μM: 1.27 ± 0.04
Period length ± standard error of the mean (expressed relative to control) at the indicated concentration ([2]; 20 μM): 20 μM: 1.05 ± 0.01

Cc1ccc(CNc2nc(N(C)C)nc3c2ncn3C2CCCO2)o1 (stereo not shown) [Compound 24]
Period length ± standard error of the mean (expressed relative to the control) at the indicated concentration ([1]; 50 μM): 50 μM: 1.24 ± 0.07
Period length ± standard error of the mean (expressed relative to control) at the indicated concentration ([2]; 10 μM): 1.03 ± 0
Period length ± standard error of the mean (expressed relative to control) at the indicated concentration ([2]; 20 μM): 1.09 ± 0.01

CN(C)c1nc(NCc2ccco2)c2ncn(C3CCCO3)c2n1 (stereo not shown) [Compound 23]
Period length ± standard error of the mean (expressed relative to the control) at the indicated concentration ([1]; 10 μM): 1.07 ± 0.01
Period length ± standard error of the mean (expressed relative to the control) at the indicated concentration ([1]; 50 μM): 1.36 ± 0.04
Period length ± standard error of the mean (expressed relative to control) at the indicated concentration ([2]; 10 μM): 10 μM: 1.08 ± 0.01

CNc1nc(NCc2ccco2)c2ncn(C3CCCO3)c2n1 (stereo not shown) [Compound 22]
Period length ± standard error of the mean (expressed relative to the control) at the indicated concentration ([1]; 50 μM): 50 μM: 1.22 ± 0.02
Period length ± standard error of the mean (expressed relative to control) at the indicated concentration ([2]; 10 μM): 10 μM: 1.06 ± 0

CN(C)c1nc(NCc2ccco2)c2ncn(C3CCCC3)c2n1 [Compound 15, 9-cyclopentyl-N^6-(furan-2-ylmethyl)-N^2,N^2-dimethyl-9H-purine-2,6-diamine]
Period length ± standard error of the mean (expressed relative to the control) at the indicated concentration ([1]; 0.83 μM): 1.08 ± 0.05
Period length ± standard error of the mean (expressed relative to the control) at the indicated concentration ([1]; 50 μM): 1.56 ± 0.07
Period length ± standard error of the mean (expressed relative to control) at the indicated concentration ([2]; 1 μM): 1.05 ± 0.01
Period length ± standard error of the mean (expressed relative to control) at the indicated concentration ([2]; 4 μM): 1.15 ± 0.01

OCCNc1nc(NCc2ccco2)c2ncn(C3CCCCO3)c2n1 (stereo not shown) [Compound 45, 2-({6-[(furan-2-ylmethyl)amino]-9-(tetrahydro-2H-pyran-2-yl)-9H-purin-2-yl}amino)ethan-1-ol]
Period length ± standard error of the mean (expressed relative to the control) at the indicated concentration ([1]; 50 μM): 50 μM: 1.32 ± 0.01
Period length ± standard error of the mean (expressed relative to control) at the indicated concentration ([2]; 20 μM): 20 μM: 1.04 ± 0.01

CCOCCn1cnc2c(NCc3ccco3)ncnc21 [9-(2-ethoxyethyl)-N-(furan-2-ylmethyl)-9H-purin-6-amine, reference compound]
Period length ± standard error of the mean (expressed relative to the control) at the indicated concentration ([1]; 50 μM): 50 μM: 0.97 ± 0.03
Period length ± standard error of the mean (expressed relative to control) at the indicated concentration ([2]; 50 μM): 50 μM: 0.99 ± 0.01

COCn1cnc2c(NCc3ccco3)ncnc21 [N-(furan-2-ylmethyl)-9-(methoxymethyl)-9H-purin-6-amine, reference compound]
Period length ± standard error of the mean (expressed relative to the control) at the indicated concentration ([1]; 50 μM): 50 μM: 0.96 ± 0.02
Period length ± standard error of the mean (expressed relative to control) at the indicated concentration ([2]; 50 μM): 50 μM: 1.01 ± 0.01

NCCNc1nc(NCc2ccco2)c2ncn(C3CCCC3)c2n1 [Compound 18]
Period length ± standard error of the mean (expressed relative to the control) at the indicated concentration ([1]; 10 μM): 1.19 ± 0
Period length ± standard error of the mean (expressed relative to the control) at the indicated concentration ([1]; 50 μM): 2.19 ± 0.35
Period length ± standard error of the mean (expressed relative to control) at the indicated concentration ([2]; 1 μM): 1 μM: 1.16 ± 0.03

c1coc(CNc2nc(NCc3ccco3)c3ncn(C4CCCCO4)c3n2)c1 (stereo not shown) [Compound 38]
Period length ± standard error of the mean (expressed relative to the control) at the indicated concentration ([1]; 50 μM): 50 μM: 1.22 ± 0.06
Period length ± standard error of the mean (expressed relative to control) at the indicated concentration ([2]; 10 μM): 10 μM: 1.1 ± 0.02
